Data from patent publication US20150344457A1, “METHODS OF INHIBITING PRMT5” (EPIZYME, INC., priority 2012, published 2015).
pEC50, pIC50: −log10 of the molar value. Where two headings read alike, the source gives them in different places.

How the values were obtained:
PRMT5/MEP50 = biological target: T1, PRMT5/MEP50 (Homo sapiens, UniProt O14744); experiment: PRMT5 Biochemical Assay (PRMT5/MEP50 enzyme assay on peptide substrate, 3H-SAM Flashplate); details: read-out: Biochemical IC50
T1 construct: Expressed full-length human Flag-PRMT5/6His-MeP50 protein complex was purified; made in house; host or cells: Spodoptera frugiperda (SF9) insect cells, baculovirus (pDEST8)
T1 sequence (O14744 with tags, fused parts or gaps): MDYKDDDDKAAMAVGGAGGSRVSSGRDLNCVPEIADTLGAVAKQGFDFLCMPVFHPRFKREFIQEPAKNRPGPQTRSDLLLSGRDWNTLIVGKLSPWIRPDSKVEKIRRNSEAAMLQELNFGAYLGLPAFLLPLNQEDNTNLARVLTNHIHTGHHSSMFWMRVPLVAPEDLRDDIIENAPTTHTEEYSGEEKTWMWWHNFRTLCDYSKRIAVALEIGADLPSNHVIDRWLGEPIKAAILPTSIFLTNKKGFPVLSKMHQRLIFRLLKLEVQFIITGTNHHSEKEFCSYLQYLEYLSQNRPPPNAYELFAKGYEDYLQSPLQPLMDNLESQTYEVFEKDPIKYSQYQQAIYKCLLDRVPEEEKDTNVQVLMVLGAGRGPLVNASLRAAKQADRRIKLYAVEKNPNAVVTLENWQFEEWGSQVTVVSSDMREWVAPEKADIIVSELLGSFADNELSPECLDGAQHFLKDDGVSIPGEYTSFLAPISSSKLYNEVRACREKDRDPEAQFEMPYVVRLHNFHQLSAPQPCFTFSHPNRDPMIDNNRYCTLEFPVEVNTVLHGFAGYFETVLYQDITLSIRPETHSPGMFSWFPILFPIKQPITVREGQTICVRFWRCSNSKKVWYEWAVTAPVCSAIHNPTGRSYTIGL
T1 sequence (Q9BQA1 with tags, fused parts or gaps partner limits assumed): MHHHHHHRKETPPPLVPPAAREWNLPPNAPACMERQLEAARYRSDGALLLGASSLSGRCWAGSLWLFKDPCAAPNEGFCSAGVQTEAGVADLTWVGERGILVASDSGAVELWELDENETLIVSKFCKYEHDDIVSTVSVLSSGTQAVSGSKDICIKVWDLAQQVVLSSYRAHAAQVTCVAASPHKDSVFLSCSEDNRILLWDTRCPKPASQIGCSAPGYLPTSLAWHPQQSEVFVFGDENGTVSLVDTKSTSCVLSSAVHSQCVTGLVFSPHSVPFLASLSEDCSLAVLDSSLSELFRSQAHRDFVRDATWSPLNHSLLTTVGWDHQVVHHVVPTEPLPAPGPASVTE

Z-138 cells = experiment: Z-138 Proliferation Assay (Cell Titer Glo, 5 days); type: cell-based; details: Homo sapiens
In short: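 Exponentially growing Z-138 cells (10,000 cells/ml) in RPMI 1640 with 10% FBS are exposed to nine-point 3-fold dilutions (final top concentration 20 μM, 0.2% DMSO) for 5 days at 37° C. Viability is measured as ATP by CellTiter-Glo luminescence. The 50% inhibitory concentration comes from a 4-parameter fit.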

[1] = Table A-2, PRMT5/MEP50 4 nM, 3H-SAM 75 nM, peptide 40 nM
[2] = 120 h, Table A-2, 5 days, top concentration 20 μM

Row | Compound | pIC50 (PRMT5/MEP50; [1]) | pIC50 (PRMT5/MEP50; Table D-2) | pEC50 (Z-138 cells; [2]) | pEC50 (Z-138 cells; Table D-2)
1 | O=C(COc1cccc(CN2CCOCC2)c1)NCC(O)CN1CCc2ccccc2C1 (centres unmarked) [Compound A75] | > 7.00 |  | 5.00 to 6.00 | 
2 | C[C@H](Oc1cccc2cccnc12)C(=O)NC[C@H](O)CN1CCc2ccccc2C1 [Compound A76] | > 7.00 |  | 5.00 to 6.00 | 
3 | O=C(COc1ccccc1N1CCOCC1)NC[C@H](O)CN1CCc2ccccc2C1 [Compound A77] | > 7.00 |  | 5.00 to 6.00 | 
4 | O=C(COc1ccccc1N1CCNCC1)NCC(O)CN1CCc2ccccc2C1 (centres unmarked) [Compound A79] | > 7.00 |  | 5.00 to 6.00 | 
5 | CN1C(=O)COc2cccc(OCC(=O)NCC(O)CN3CCc4ccccc4C3)c21 (centres unmarked) [Compound A80] | > 7.00 |  | 4.30 to 5.00 | 
6 | CN1CCOc2cccc(OCC(=O)NCC(O)CN3CCc4ccccc4C3)c21 (centres unmarked) [Compound A81] | > 7.00 |  | 6.00 to 7.00 | 
7 | Cn1ncc2c(OCC(=O)NCC(O)CN3CCc4ccccc4C3)cccc21 (centres unmarked) [Compound A82] | > 7.00 |  | 5.00 to 6.00 | 
8 | O=C(COc1cccc(C(=O)N2CCOCC2)c1)NCC(O)CN1CCc2ccccc2C1 (centres unmarked) [Compound A83] | 6.00 to 7.00 |  | 4.30 to 5.00 | 
9 | CN1CCN(c2ccccc2OCC(=O)NC[C@H](O)CN2CCc3ccccc3C2)CC1 [Compound A84] | > 7.00 |  | 5.00 to 6.00 | 
10 | O=C(COc1ccccc1OCCN1CCOCC1)NC[C@H](O)CN1CCc2ccccc2C1 [Compound A86] | > 7.00 |  | 4.30 to 5.00 | 
11 | CN(C)CCOc1ccccc1OCC(=O)NC[C@H](O)CN1CCc2ccccc2C1 [Compound A88] | > 7.00 |  | 4.30 to 5.00 | 
12 | CC(=O)N1CCN(c2ccccc2OCC(=O)NCC(O)CN2CCc3ccccc3C2)CC1 (centres unmarked) [Compound A90] | > 7.00 |  | 4.30 to 5.00 | 
13 | O=C(COc1cccc2c1CCNC2)NCC(O)CN1CCc2ccccc2C1 (centres unmarked) [Compound A91] | > 7.00 |  | 5.00 to 6.00 | 
14 | O=C(COc1cccc2nccnc12)NCC(O)CN1CCc2ccccc2C1 (centres unmarked) [Compound A92] | > 7.00 |  | 5.00 to 6.00 | 
15 | O=C(COc1cccc(NC2CCOCC2)c1)NCC(O)CN1CCc2ccccc2C1 (centres unmarked) [Compound A93] | > 7.00 |  | 5.00 to 6.00 | 
16 | O=C(COc1c(CN2CCOCC2)ccc2cccnc12)NC[C@H](O)CN1CCc2ccccc2C1 [Compound A94] | > 7.00 |  | 4.30 to 5.00 | 
17 | O=C(COc1ccc2c(cnn2C2CCNC2)c1)NCC(O)CN1CCc2ccccc2C1 (centres unmarked) [Compound A95] | > 7.00 |  | 4.30 to 5.00 | 

More lines, main results first:

Row | pIC50 (PRMT5/MEP50; [1]) | pIC50 (PRMT5/MEP50; Table D-2) | Compound | pEC50 (Z-138 cells; [2]) | pEC50 (Z-138 cells; Table D-2)
18 |  | > 7.00 | Cn1cnc2ccc(-c3cccc(NCC(O)CN4CCc5ccccc5C4)c3)cc21 (centres unmarked) [Compound D102] |  | 5.00 to 6.00
19 |  | 6.00 to 7.00 | OC(COc1cccc(-c2ccc3ncn(C4CCOCC4)c3c2)c1)CN1CCc2ccccc2C1 (centres unmarked) [Compound D103] |  | 5.00 to 6.00
20 |  | 6.00 to 7.00 | OC(COc1cccc(-c2ccc3ncn(-c4ccccc4)c3c2)c1)CN1CCc2ccccc2C1 (centres unmarked) [Compound D104] |  | < 4.70
21 |  | > 7.00 | OC(COc1cccc(-c2ccc3ncn(Cc4ccccc4)c3c2)c1)CN1CCc2ccccc2C1 (centres unmarked) [Compound D105] |  | 4.40 to 5.00
22 |  | > 7.00 | Cn1ncc2ccc(-c3cccc(OCC(O)CN4CCc5ccccc5C4)c3)cc21 (centres unmarked) [Compound D106] |  | < 4.70
23 |  | 6.00 to 7.00 | OC(COc1cccc(-c2ccc3[nH]ncc3c2)c1)CN1CCc2ccccc2C1 (centres unmarked) [Compound D107] |  | < 4.70
24 |  | > 7.00 | Cn1ncc2cc(-c3cccc(OCC(O)CN4CCc5ccccc5C4)c3)ccc21 (centres unmarked) [Compound D108] |  | 4.40 to 5.00
25 |  | 6.00 to 7.00 | O=c1[nH]c2ccc(-c3cccc(OCC(O)CN4CCc5ccccc5C4)c3)cc2[nH]1 (centres unmarked) [Compound D109] |  | 4.40 to 5.00
26 |  | 6.00 to 7.00 | Cc1ccncc1-c1cccc(OCC(O)CN2CCc3ccccc3C2)c1 (centres unmarked) [Compound D113] |  | 4.40 to 5.00
27 |  | > 7.00 | CN(CC(O)CN1CCc2ccccc2C1)c1cccc(CNC2CCOCC2)c1 (centres unmarked) [Compound D116] |  | < 4.70
28 |  | 6.00 to 7.00 | Cn1cnc2ccc(-c3cccc(NCC(O)CN4CCc5ccccc5C4)n3)cc21 (centres unmarked) [Compound D117] |  | < 4.70
